The subject of data set [1] is MDA-MB-435 (human breast adenocarcinoma) cell line. Conditions: cited from earlier work.
Data set [2] deals with human breast carcinoma MDA-MB-435. Nature of the data set: sulforhodamine assay, proliferation of human tumor cells, MDA-MB-435. It counts as cell-based. Conditions: MDA-MB-435, sulforhodamine assay. On the procedure:
Laulimalide analogs disclosed herein were evaluated for the ability to inhibit the proliferation of human tumor cells using the sulforhodamine assay format (Mooberry et al., Cancer Research, 1999, 59, 653-660). The two cells lines selected were the human breast carcinoma MDA-MB-435 and the corresponding MDR cell line NCI/ADR, which overexpresses the PGP efflux pump protein.

For data set [3], the system named is human umbilical vein endothelial cells (HUVEC). Conditions: read-out: IC50, inhibition of HUVEC proliferation; cited from earlier work.
Data set [4] has as its system MDA-MB-435. Conditions: cited from earlier work.
For data set [5], the system named is SK-OV-3 (ovarian carcinoma) cell line. Conditions: cited from earlier work.
Data set [6] concerns SKVLB-1. Conditions: cited from earlier work; for Resistance factor (SKVLB-1/SK-OV-3): ratio of IC50 SKVLB-1/SK-OV-3.
For data set [7], the system named is tubulin polymer. Conditions: radiolabeled Taxol; cited from earlier work.
In data set [8] the test system is human umbilical vein endothelial cells (HUVEC). Conditions: cited from earlier work.
Data set [9] concerns A10 cells. Conditions: 2-20 μM; cited from earlier work.
In data set [10] the test system is purified tubulin. Conditions: cited from earlier work.
The conditions of data set [11]: 0.01 N solution of HCl in acetone; cited from earlier work.
The subject of data set [12] is KB cells. Conditions: cited from earlier work.
Setting [13] is: SKVLB-1 (P-gp overexpressing MDR).

In brackets after ≈: the same amount, converted by molar mass.

With `C=C1C[C@H](C)C[C@@H]2CC=C[C@@H](C/C=C\C(=O)O[C@H]([C@@H](O)/C=C/[C@@H]3CC(C)=CCO3)C[C@@H]3O[C@H]3[C@@H](O)C1)O2` [Laulimalide, laulimalide], the cell cycle arrest entry in data set [1] is recorded as “cell cycle arrest at the G2/M transition”. Besides, the IC50 in data set [2] was 0.0057 ± 0.0006 µM; in [3] it was 0.004 µM; in data set [4] it was 0.00573 ± 0.00058 µM; in [5] it was 0.0115 ± 0.00053 µM; in [6] (setting [13]) it was 1.21 ± 0.49 µM. In addition, the “Resistance factor (SKVLB-1/SK-OV-3)” value in [6] is 105. The “competition with Taxol binding to tubulin polymer” value in data set [7] is reported as “does not compete with Taxol”. In addition, in [8], the “concentration inhibiting tubule formation and VEGF-induced HUVEC migration” value is listed as “subnanomolar”. The microtubule bundling result in data set [9] is reported as “caused bundling of microtubules similar to that induced by Taxol”. Besides, the “polymerization of purified tubulin” value in data set [10] is recorded as “caused the polymerization of purified tubulin”. Further, the “time to complete acid-catalyzed decomposition to isolaulimalide” value in data set [11] was “four”. The “IC50, cytotoxic to KB cells” value in [12] is 0.015 mg/L (≈ 0.0291 µM).
With `C=C1C[C@H](C)C[C@@H]2CC=C[C@@H](C/C=C\C(=O)O[C@H]3C[C@@H](O[C@H]3/C=C/[C@@H]3CC(C)=CCO3)[C@@H](O)[C@@H](O)C1)O2` [Isolaulimalide, isolaulimalide], the figures for the IC50 in data set [4], in [5] and in data set [6] (setting [13]) were 1.97 ± 0.097 µM, 2.57 ± 0.29 µM and 2.65 ± 1.38 µM, respectively. Besides, the “Resistance factor (SKVLB-1/SK-OV-3)” value in [6] is 1.03. Also, the microtubule bundling result in [9] is reported as “no microtubule bundles were observed”. The “IC50, cytotoxic to KB cells” value in data set [12] was > 0.2 mg/L.
For `CC(=O)O[C@H]1C(=O)[C@@]2(C)[C@H]([C@H](OC(=O)c3ccccc3)[C@]3(O)C[C@H](OC(=O)[C@H](O)[C@@H](NC(=O)c4ccccc4)c4ccccc4)C(C)=C1C3(C)C)[C@]1(OC(C)=O)CO[C@@H]1C[C@@H]2O` [Taxol, paclitaxel], the IC50 in data set [4] is 0.00102 ± 0.00025 µM; in data set [5], 0.00171 ± 0.00107 µM; in [6] (setting [13]), > 100 µM. Also, the “IC50 (nM)” value in data set [6] (setting [13]) is listed as “completely ineffective”. Besides, the “Resistance factor (SKVLB-1/SK-OV-3)” value in [6] is reported as >58480.
